Data reported in US12660819B2, “Herbicidal derivatives” (SYNGENTA CROP PROTECTION AG, priority 2020, dated 2026).

Experiments:
Type in all cases: in vivo
[1] = tested on: Ipomoea hederacea (IPOHE); assay: Pre-emergence Test (glasshouse, percentage damage to the plant); settings: 1000 g/ha unless otherwise stated, five-point scale
Solanum nigrum (SOLNI) [2] = assay: as above; settings: 1000 g/ha unless otherwise stated, five-point scale
Lolium perenne (LOLPE) [3] = assay: as above; settings: 1000 g/ha unless otherwise stated, five-point scale
[4] = tested on: Echinochloa crus-galli (ECHCG); assay: as above; settings: 1000 g/ha unless otherwise stated, five-point scale
[5] = tested on: Amaranthus retoflexus (AMARE); assay: as above; settings: 1000 g/ha unless otherwise stated, five-point scale
Setaria faberi (SETFA) [6] = assay: as above; settings: 1000 g/ha unless otherwise stated, five-point scale
[7] = tested on: Ipomoea hederacea (IPOHE); assay: Post-emergence Test (glasshouse, percentage damage to the plant); settings: post-emergence spray, 1000 g/ha unless otherwise stated, evaluated after 13 days
Summary of the method: (§1)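 Spray treatment of sown glasshouse pots at 1000 g/ha (default rate), vehicle acetone/water 50:50 plus 0.5% Tween 20. Read-out: percentage damage after 13 days, converted to a score where 5 denotes 81-100% and 1 denotes 0-20%.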

Setaria faberi (SETFA) [8] = assay: as above; settings: post-emergence spray, 1000 g/ha unless otherwise stated, evaluated after 13 days
Summary of the method: as §1

[9] = tested on: Amaranthus retoflexus (AMARE); assay: as above; settings: post-emergence spray, 1000 g/ha unless otherwise stated, evaluated after 13 days
Summary of the method: (§2)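 Compound formulated in 50:50 acetone/water with 0.5% Tween 20 was diluted to an aqueous spray and applied at 1000 g/ha, unless otherwise stated, onto sown pots. Evaluation after 13 days gave percentage damage, banded into a 1–5 score.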

Lolium perenne (LOLPE) [10] = assay: as above; settings: post-emergence spray, 1000 g/ha unless otherwise stated, evaluated after 13 days
Summary of the method: as §2

[11] = tested on: Echinochloa crus-galli (ECHCG); assay: as above; settings: post-emergence spray, 1000 g/ha unless otherwise stated, evaluated after 13 days
Summary of the method: as §2

Solanum nigrum (SOLNI) [12] = assay: as above; settings: post-emergence spray, 1000 g/ha unless otherwise stated, evaluated after 13 days
Summary of the method: as §2

Row | Compound | percentage damage to the plant, IPOHE [1] | percentage damage to the plant, SOLNI (Solanum nigrum (SOLNI) [2]) | percentage damage to the plant, LOLPE (Lolium perenne (LOLPE) [3]) | percentage damage to the plant, ECHCG [4] | percentage damage to the plant, AMARE [5] | percentage damage to the plant, SETFA (Setaria faberi (SETFA) [6]) | Post-emergence Test IPOHE, percentage damage to the plant (five-point scale) [7] | Post-emergence Test SETFA, percentage damage to the plant (five-point scale) (Setaria faberi (SETFA) [8]) | Post-emergence Test AMARE, percentage damage to the plant (five-point scale) [9] | Post-emergence Test LOLPE, percentage damage to the plant (five-point scale) (Lolium perenne (LOLPE) [10]) | Post-emergence Test ECHCG, percentage damage to the plant (five-point scale) [11] | Post-emergence Test SOLNI, percentage damage to the plant (five-point scale) (Solanum nigrum (SOLNI) [12])
1 | CCn1c(C)c(-c2ccc(Cl)cc2)c(=O)c(C(=O)O)c1-c1ccc(Cl)c(Cl)c1 [Compound 10, 5-(4-chlorophenyl)-2-(3,4-dichlorophenyl)-1-ethyl-6-methyl-4-oxo-pyridine-3-carboxylic acid] | 2 (2=21-40%) | 4 (4=61-80%) | 1 (1=0-20%) | 3 (3=41-60%) | 5 (5=81-100%) | 4 (4=61-80%) | 4 (4=61-80%) | 5 (5=81-100%) | 5 (5=81-100%) | 3 (3=41-60%) | 4 (4=61-80%) | 5 (5=81-100%)
2 | CCn1c(C)c(-c2ccc(F)cc2)c(=O)c(C(=O)O)c1-c1ccc(Cl)c(Cl)c1 [Compound 11, 2-(3,4-dichlorophenyl)-1-ethyl-5-(4-fluorophenyl)-6-methyl-4-oxo-pyridine-3-carboxylic acid] | 2 (2=21-40%) | 5 (5=81-100%) | 1 (1=0-20%) | 5 (5=81-100%) | 5 (5=81-100%) | 5 (5=81-100%) | 4 (4=61-80%) | 4 (4=61-80%) | 4 (4=61-80%) | 2 (2=21-40%) | 4 (4=61-80%) | 5 (5=81-100%)
3 | CCn1c(C)c(-c2ccccc2Cl)c(=O)c(C(=O)O)c1-c1ccc(Cl)c(Cl)c1 [Compound 13, 5-(2-chlorophenyl)-2-(3,4-dichlorophenyl)-1-ethyl-6-methyl-4-oxo-pyridine-3-carboxylic acid] | 4 (4=61-80%) | 4 (4=61-80%) | 2 (2=21-40%) | 5 (5=81-100%) | 4 (4=61-80%) | 5 (5=81-100%) | 4 (4=61-80%) | 4 (4=61-80%) | 4 (4=61-80%) | 4 (4=61-80%) | 4 (4=61-80%) | 3 (3=41-60%)
4 | CCn1c(C)c(-c2ccccc2F)c(=O)c(C(=O)O)c1-c1ccc(Cl)c(Cl)c1 [Compound 14, 2-(3,4-dichlorophenyl)-1-ethyl-5-(2-fluorophenyl)-6-methyl-4-oxo-pyridine-3-carboxylic acid] | 3 (3=41-60%) | 2 (2=21-40%) | 1 (1=0-20%) | 4 (4=61-80%) | 2 (2=21-40%) | 5 (5=81-100%) | 4 (4=61-80%) | 4 (4=61-80%) | 4 (4=61-80%) | 4 (4=61-80%) | 4 (4=61-80%) | 3 (3=41-60%)
5 | CCn1c(C)c(-c2ccc(Cl)cc2Cl)c(=O)c(C(=O)O)c1-c1ccc(Cl)c(Cl)c1 [Compound 15, 5-(2,4-dichlorophenyl)-2-(3,4-dichlorophenyl)-1-ethyl-6-methyl-4-oxo-pyridine-3-carboxylic acid] | 1 (1=0-20%) | 3 (3=41-60%) | 1 (1=0-20%) | 1 (1=0-20%) | 5 (5=81-100%) | 5 (5=81-100%) | 2 (2=21-40%) | 5 (5=81-100%) | 5 (5=81-100%) | 1 (1=0-20%) | 4 (4=61-80%) | 4 (4=61-80%)
6 | CCn1c(C)c(-c2cccc(OC(F)(F)F)c2)c(=O)c(C(=O)O)c1-c1ccc(Cl)c(Cl)c1 [Compound 16, 2-(3,4-dichlorophenyl)-1-ethyl-6-methyl-4-oxo-5-[3-(trifluoromethoxy)phenyl]pyridine-3-carboxylic acid] | 2 (2=21-40%) | 1 (1=0-20%) | 1 (1=0-20%) | 4 (4=61-80%) | 1 (1=0-20%) | 3 (3=41-60%) | 4 (4=61-80%) | 5 (5=81-100%) | 4 (4=61-80%) | 1 (1=0-20%) | 5 (5=81-100%) | 4 (4=61-80%)
7 | CCn1c(C)c(-c2ccnc(F)c2)c(=O)c(C(=O)O)c1-c1ccc(Cl)c(Cl)c1 [Compound 17, 2-(3,4-dichlorophenyl)-1-ethyl-5-(2-fluoro-4-pyridyl)-6-methyl-4-oxo-pyridine-3-carboxylic acid] | 1 (1=0-20%) | 3 (3=41-60%) | 3 (3=41-60%) | 3 (3=41-60%) | 1 (1=0-20%) | 5 (5=81-100%) | 4 (4=61-80%) | 4 (4=61-80%) | 4 (4=61-80%) | 4 (4=61-80%) | 4 (4=61-80%) | 3 (3=41-60%)
8 | CCn1c(C)c(-c2ccc(OC)cc2)c(=O)c(C(=O)O)c1-c1ccc(Cl)c(Cl)c1 [Compound 18, 2-(3,4-dichlorophenyl)-1-ethyl-5-(4-methoxyphenyl)-6-methyl-4-oxo-pyridine-3-carboxylic acid] | 1 (1=0-20%) | 2 (2=21-40%) | 1 (1=0-20%) | 2 (2=21-40%) | 1 (1=0-20%) | 4 (4=61-80%) | 5 (5=81-100%) | 5 (5=81-100%) | 5 (5=81-100%) | 2 (2=21-40%) | 4 (4=61-80%) | 5 (5=81-100%)
